Results as given in publication PMC11554538, “Region-independent active CNS net uptake of marketed H^+/OC antiporter system substrates” (Frontiers in Cellular Neuroscience, 2024).
Where a name gives a salt, the structure may show the parent alone. Read-outs that look alike come from different tables or passages of the source.

Assays:
in vitro [1] = conditions: rat
in vivo [2] = conditions: male, Sprague-Dawley, rat, iv
[3] = rat, in vivo; for Cu,brainISF,ss (unbound steady-state concentration in brain interstitial fluid): male, Sprague-Dawley
in vitro [4] = conditions: rat; for fraction unbound at 6 h: pH 7.4, Unbound fraction in plasma, fu,plasma
Description: Equilibrium dialysis was employed to determine the fraction of unbound drug in plasma (fu,plasma), homogenates of whole-brain (fu,brain) and the CNS regions of interest (fu,ROI) including the frontal cortex, parietal cortex, cerebellum, striatum, hippocampus, and spinal cord. […] Briefly, a Teflon 96-well plate (model HTD96b, HTDialysis LLC, Gales Ferry, CT, USA) with a cellulose membrane with a 12–14 kDa molecular weight cutoff was used. The cellulose membrane was treated according to the recommendations from the manufacturer before starting the experiment (HTDialysis LLC, Gales Ferry, CT, USA). Fresh plasma (n=3 rats per drug) was obtained on the day of the experiment and the pH of the plasma was adjusted to 7.40 using H3PO4. […] Whole brain and CNS regions of interest (n = 3–4 rats per drug) were homogenized in 1:9 (w:v) PBS pH 7.40. Diluted brain samples were individually spiked to a final concentration of 1,000 nM. Hundred μL of undiluted spiked plasma samples or homogenates were dialyzed against equal volumes of PBS, pH 7.40, for 6 h at 37°C at 200 rpm in an incubator with orbital shaking (MaxQ4450 Thermo Fisher Scientific, NinoLab, Sweden). One to three technical replicates were tested per biological replicate. Drug recovery and thermostability in plasma and brain were analyzed in each experiment by sampling spiked samples before and after the 6-h incubation. […] At the end of the 6-h incubation, 50 μL PBS sample from the receiver chambers was transferred into a Corning® 0.33 mL round-bottom polypropylene 96-well plate (VWR, Stockholm, Sweden) containing 50 μL blank plasma or 1:9 (w:v) brain homogenate using a multichannel pipette. Immediately after this step, 50 μL spiked plasma or brain homogenate was taken from the donor chambers and added to the same 96-well plate containing 50 μL of blank PBS. The 96-well plate was sealed with aluminum film, vortexed and stored at −20°C pending bioanalysis. The fraction of unbound drug in plasma was assessed as a ratio between buffer and plasma concentrations. The unbound fraction of drug in the diluted (D) CNS tissue homogenate (fu,hD) was calculated as: […]

[5] = cited from earlier work
in vitro [6] = conditions: rat; remark: listed apart in the source
[7] = male, Sprague-Dawley, rat, in vivo
in vivo [8] = conditions: male, Sprague-Dawley, rat
[9] = rat, 5 h
[10] = cerebral microdialysis, ref Kitamura et al., 2016
[11] = brain homogenate, pH 7.4, Unbound fraction fu,ROI (fu,brain)
[12] = tissue homogenate, pH 7.4, Unbound fraction fu,ROI

Row | Structure (SMILES) | Kp uu at 5 h (in vitro [1]) | Cu,brainISF,ss (unbound steady-state concentration in brain interstitial fluid) ([3]; 4 h) | Kp,uu,ROI (unbound ROI-to-plasma concentration ratio) [3] | fraction unbound at 6 h (in vitro [4]; plasma) | Reported Kp,uu [5, 10] | fraction unbound at 6 h, 1000 nM (in vitro [6]; [11]) | fraction unbound at 6 h, 1000 nM (in vitro [6]; [12]) | Ctot,CSF,ss (total CSF concentration at steady state, assumed equal to unbound) ([7]; 4 h) | other results
1 | CC12CC3CC(C)(C1)CC(N)(C3)C2 [Memantine, memantine hydrochloride] | 2.11 | 194.3±38.5 ng/g brain | exceeding unity | 0.543 ± 0.037 | 1.80 | – | – | – | Kp at 4 h (in vivo [2]): 41.7; Reported Kp,uu ([5]; cerebral microdialysis, ref Kawase et al., 2021a): 2.03
2 | COc1ccc(CN(CCN(C)C)c2ccccn2)cc1 [Pyrilamine, Pyrilamine maleate] | 1.88 | 21.6±2.0 ng/g brain | exceeding unity | 0.386 ± 0.093 | 2.50 (Kitamura et al., [2016]) | 0.093 ± 0.012 | 0.103 ± 0.013 | 7.7±1.9 | Difference between mean Kp,uu,ROI in the whole brain and Kp,uu,CSF ([7]; 4 h): 2.8 fold
3 | COc1cccc(C2(O)CCCCC2CN(C)C)c1 (centres unmarked) [Tramadol, tramadol hydrochloride] | – | – | exceeding unity | – | – | – | – | – | Kp uu (in vitro [1]): 2.01; fraction unbound (in vitro [6]; [11]): 0.496 ± 0.128; fraction unbound (in vitro [6]; [12]): 0.462 ± 0.064; Kp uu at 4 h (in vivo [8]): 1.49 ± 0.49; Ctot,CSF,ss (total CSF concentration at steady state, assumed equal to unbound) [7]: 47.7±8.2; Cu,brainISF,ss (unbound steady-state concentration in brain interstitial fluid) [3]: 95.0±9.4; fraction unbound at 6 h (in vitro [4]; undiluted rat plasma pH 7.40, 500 nM (memantine 500 ng/mL), 6 h, 37°C, mean ± SD): 0.827 ± 0.027; Reported Kp,uu ([5]; in vivo): 2.90 (Kitamura et al., [2016]) 2.30 (Kitamura et al., [2014])
4 | CC(NC(C)(C)C)C(=O)c1cccc(Cl)c1 (centres unmarked) [Bupropion, bupropion hydrochloride] | – | 9.3±4.6 ng/g brain | exceeding unity | 0.33 | – | 0.209 ± 0.031 | 0.142 ± 0.004 | 21.9±5.6 | Kp uu at 5 h (in vitro [1]; Kp,uu,cell,obs (observed unbound brain intracellular-to-extracellular concentration ratio)): 3.12; Kp,uu,cell,obs (observed unbound brain intracellular-to-extracellular concentration ratio) [9]: 3.1; Unbound fraction in plasma, fu,plasma (in vitro [4]; 6 h, pH 7.4): 0.327 ± 0.068; Reported Kp,uu ([5]; cerebral microdialysis, ref Cremers et al., 2016): 1.9 (Cremers et al., [2016])
